Test [1] has as its system gastric secretion in rats. The experiment in a line: Action on gastric secretion in rats after intraduodenal administration. The following applies: 40 mg/Kg i.d., activity of scopolamine bromobutylate equal to 1. The test is classed as in vivo, rat. The text has this:
Action on gastric secretion in rats after intraduodenal administration according to Birnbaum G., Medicina Psicosomatica, 13, 1-4 (1968).
(§1) The above experiments have been carried out in comparison with scopolamine bromobutylate as a reference. The results are shown in the following table and are expressed on the basis of the activity of scopolamine bromobutylate being equal to 1.

For test [2], the system named is Shay ulcer in rats. Put plainly: Action on Shay ulcer in rats by intraduodenal route. It counts as in vivo, rat. The note with it: 100 mg/Kg i.d., activity of scopolamine bromobutylate equal to 1.
Text: Action on Shay ulcer in rats by intraduodenal route according to Shay H., Komarov S. A., Fels S. S., Meranze D., Gruenstein M. and Siplet H., Gastroenterology, 5, 43-61 (1945).
as §1

In test [3] the test system is rabbit choledochoduodenal junction. Put plainly: Spasmolytic activity "in vivo" on rabbit choledochoduodenal junction stimulated by neostigmine. The note with it: 10 mcg/Kg i.v.; neostigmine 60 mcg/Kg i.v.; activity of scopolamine bromobutylate equal to 1.
Text: Spasmolytic activity "in vivo" on rabbit choledochoduodenal junction stimulated by neostigmine (60 mcg/Kg i.v.), after i.v. administration of the compound under examination, according to Luoma P., Acta Pharmacol. e Toxicol., 29, suppl. 1, 5-55 (1971).
as §1

Test [4] in a line: Overall evaluation of the spasmolytic and anti-ulcer tests. The note with it: versus scopolamine bromobutylate.
Text: The properties of the new compounds may be illustrated by the results of the following experiments.
as §1

The record followed here is patent US3952108A, “Scopolamine derivatives for treating ulcers and spasms” (Istituto de Angeli S.p.A., priority 1972, dated 1976).

The structures appear in SMILES notation.

For `C[N+]1(CC2CC2)[C@@H]2C[C@H](OC(=O)[C@H](CO)c3ccccc3)C[C@H]1[C@@H]1O[C@@H]12` (stereo partly drawn) [DA-3177, scopolamine-N-(cyclopropyl-methyl)-bromide], the “inhibition % of the gastric juice, relative to scopolamine bromobutylate = 1” value in test [1] is 1. For the same compound, in test [2], the “% of animals protected from ulcer, relative to scopolamine bromobutylate = 1” value worked out at 1.5. In addition, in test [3], the “% increase of flux, relative to scopolamine bromobutylate = 1” value was determined as 0.9. Moreover, the “Activity compared with the reference compound, taking into account the relevant toxicities” value in test [4] is on record as “higher activities than the reference compound”.
The matching figures for `CC1CC1C[N+]1(C)[C@@H]2C[C@H](OC(=O)[C@H](CO)c3ccccc3)C[C@H]1[C@@H]1O[C@@H]12` (stereo partly drawn) [DA-3235, Scopolamine-N-(2-methyl-cyclopropyl-methyl)-bromide]: 0.8, 2, 0.8 and “higher activities than the reference compound”.
Turning to `C[N+]1(CCC2CC2)[C@@H]2C[C@H](OC(=O)[C@H](CO)c3ccccc3)C[C@H]1[C@@H]1O[C@@H]12` (stereo partly drawn) [DA-3236, scopolamine-N-(cyclopropyl-ethyl)-bromide], the “inhibition % of the gastric juice, relative to scopolamine bromobutylate = 1” value in test [1] is on record as 1.1. Besides, the “% of animals protected from ulcer, relative to scopolamine bromobutylate = 1” value in test [2] is 2. In addition, the “% increase of flux, relative to scopolamine bromobutylate = 1” value in test [3] is recorded as 0.9.
Consider `C[N+]1(CC2CCC2)[C@@H]2C[C@H](OC(=O)[C@H](CO)c3ccccc3)C[C@H]1[C@@H]1O[C@@H]12` (stereo partly drawn) [DA-3237, Scopolamine-N-(cyclobutyl-methyl)-bromide], for which the “inhibition % of the gastric juice, relative to scopolamine bromobutylate = 1” value in test [1] came to 1.2. Further, the “% of animals protected from ulcer, relative to scopolamine bromobutylate = 1” value in test [2] worked out at 2. For the same compound, the “% increase of flux, relative to scopolamine bromobutylate = 1” value in test [3] amounted to 1.2. The “Activity compared with the reference compound, taking into account the relevant toxicities” value in test [4] is on record as “higher activities than the reference compound”.
Turning to `C[N+]1(CC2CO2)[C@@H]2C[C@H](OC(=O)[C@H](CO)c3ccccc3)C[C@H]1[C@@H]1O[C@@H]12` (stereo partly drawn) [DA-3245, scopolamine-N-(2,3-epoxypropyl)-bromide], the “inhibition % of the gastric juice, relative to scopolamine bromobutylate = 1” value in test [1] is given as 1.4. Also, the “% of animals protected from ulcer, relative to scopolamine bromobutylate = 1” value in test [2] amounted to 1.5. Further, the “% increase of flux, relative to scopolamine bromobutylate = 1” value in test [3] is 0.4.
Take `CCCC[N+]1(C)[C@@H]2C[C@@H](OC(=O)[C@H](CO)c3ccccc3)C[C@H]1[C@@H]1O[C@@H]12` (stereo partly drawn) [Scopolamine bromobutylate, scopolamine bromobutylate, reference compound]: the “inhibition % of the gastric juice, relative to scopolamine bromobutylate = 1” value in test [1] was found to be 1. The “% of animals protected from ulcer, relative to scopolamine bromobutylate = 1” value in test [2] is 1. Also, in test [3], the “% increase of flux, relative to scopolamine bromobutylate = 1” value is on record as 1.
